Measured values as given in the NIST ThermoML archive (doi:10.1021/je800786k).

Conditions: Liquid, Vibrating tube method

CCC(C)N (configuration not stated) [2-butanamine]
Conditions	mass density [kg/m3]
293.15 K, 100 kPa	725.3
293.15 K, 10000 kPa	733.6
293.15 K, 20000 kPa	741.2
293.15 K, 30000 kPa	748.1
293.15 K, 40000 kPa	754.5
293.15 K, 50000 kPa	760.4
293.15 K, 60000 kPa	766.1
293.15 K, 70000 kPa	771.3
293.15 K, 80000 kPa	776.3
293.15 K, 90000 kPa	781.1
293.15 K, 100000 kPa	785.5
293.15 K, 110000 kPa	789.7
293.15 K, 120000 kPa	793.9
293.15 K, 130000 kPa	797.8
293.15 K, 140000 kPa	801.5
303.15 K, 100 kPa	715.1
303.15 K, 10000 kPa	724.3
303.15 K, 20000 kPa	732.4
303.15 K, 30000 kPa	739.7
303.15 K, 40000 kPa	746.3
303.15 K, 50000 kPa	752.5
303.15 K, 60000 kPa	758.3
303.15 K, 70000 kPa	763.7
303.15 K, 80000 kPa	768.9
303.15 K, 90000 kPa	773.8
303.15 K, 100000 kPa	778.4
303.15 K, 110000 kPa	782.9
303.15 K, 120000 kPa	787.2
303.15 K, 130000 kPa	791.2
303.15 K, 140000 kPa	795.2
313.15 K, 100 kPa	705
313.15 K, 10000 kPa	714.8
313.15 K, 20000 kPa	723.4
313.15 K, 30000 kPa	731.1
313.15 K, 40000 kPa	738.2
313.15 K, 50000 kPa	744.7
313.15 K, 60000 kPa	750.8
313.15 K, 70000 kPa	756.5
313.15 K, 80000 kPa	761.9
313.15 K, 90000 kPa	767
313.15 K, 100000 kPa	771.8
313.15 K, 110000 kPa	776.4
313.15 K, 120000 kPa	780.8
313.15 K, 130000 kPa	785.1
313.15 K, 140000 kPa	789.1
323.15 K, 100 kPa	694.7
323.15 K, 10000 kPa	705.4
323.15 K, 20000 kPa	714.5
323.15 K, 30000 kPa	722.8
323.15 K, 40000 kPa	730.4
323.15 K, 50000 kPa	737.2
323.15 K, 60000 kPa	743.6
323.15 K, 70000 kPa	749.5
323.15 K, 80000 kPa	755.2
323.15 K, 90000 kPa	760.4
323.15 K, 100000 kPa	765.4
323.15 K, 110000 kPa	770.2
323.15 K, 120000 kPa	774.7
323.15 K, 130000 kPa	779
323.15 K, 140000 kPa	783.2
333.15 K, 10000 kPa	695.4
333.15 K, 20000 kPa	705.2
333.15 K, 30000 kPa	714
333.15 K, 40000 kPa	722
333.15 K, 50000 kPa	729.2
333.15 K, 60000 kPa	735.8
333.15 K, 70000 kPa	742.1
333.15 K, 80000 kPa	748
333.15 K, 90000 kPa	753.4
333.15 K, 100000 kPa	758.6
333.15 K, 110000 kPa	763.5
333.15 K, 120000 kPa	768.1
333.15 K, 130000 kPa	772.5
333.15 K, 140000 kPa	776.9
343.15 K, 10000 kPa	685.9
343.15 K, 20000 kPa	696.6
343.15 K, 30000 kPa	706
343.15 K, 40000 kPa	714.3
343.15 K, 50000 kPa	721.9
343.15 K, 60000 kPa	728.8
343.15 K, 70000 kPa	735.3
343.15 K, 80000 kPa	741.3
343.15 K, 90000 kPa	747.1
343.15 K, 100000 kPa	752.4
343.15 K, 110000 kPa	757.4
343.15 K, 120000 kPa	762.3
343.15 K, 130000 kPa	767
343.15 K, 140000 kPa	771.3
353.15 K, 10000 kPa	675.8
353.15 K, 20000 kPa	687.1
353.15 K, 30000 kPa	697.2
353.15 K, 40000 kPa	705.8
353.15 K, 50000 kPa	714
353.15 K, 60000 kPa	721.2
353.15 K, 70000 kPa	728
353.15 K, 80000 kPa	734.2
353.15 K, 90000 kPa	740.1
353.15 K, 100000 kPa	745.7
353.15 K, 110000 kPa	751
353.15 K, 120000 kPa	756
353.15 K, 130000 kPa	760.7
353.15 K, 140000 kPa	765.3
363.15 K, 10000 kPa	665.7
363.15 K, 20000 kPa	678
363.15 K, 30000 kPa	688.5
363.15 K, 40000 kPa	697.8
363.15 K, 50000 kPa	706.2
363.15 K, 60000 kPa	713.9
363.15 K, 70000 kPa	721
363.15 K, 80000 kPa	727.5
363.15 K, 90000 kPa	733.6
363.15 K, 100000 kPa	739.4
363.15 K, 110000 kPa	744.8
363.15 K, 120000 kPa	749.9
363.15 K, 130000 kPa	754.8
363.15 K, 140000 kPa	759.5
373.15 K, 10000 kPa	655.5
373.15 K, 20000 kPa	668.9
373.15 K, 30000 kPa	680.1
373.15 K, 40000 kPa	690
373.15 K, 50000 kPa	698.2
373.15 K, 60000 kPa	707
373.15 K, 70000 kPa	714
373.15 K, 80000 kPa	720.9
373.15 K, 90000 kPa	727.2
373.15 K, 100000 kPa	733.2
373.15 K, 110000 kPa	738.7
373.15 K, 120000 kPa	744
373.15 K, 130000 kPa	749.1
373.15 K, 140000 kPa	753.9
383.15 K, 10000 kPa	645.5
383.15 K, 20000 kPa	659.9
383.15 K, 30000 kPa	671.9
383.15 K, 40000 kPa	682.3
383.15 K, 50000 kPa	691.4
383.15 K, 60000 kPa	699.6
383.15 K, 70000 kPa	707.3
383.15 K, 80000 kPa	714.4
383.15 K, 90000 kPa	720.8
383.15 K, 100000 kPa	726.9
383.15 K, 110000 kPa	732.7
383.15 K, 120000 kPa	738.2
383.15 K, 130000 kPa	743.3
383.15 K, 140000 kPa	748.2
393.15 K, 10000 kPa	634.9
393.15 K, 20000 kPa	650.5
393.15 K, 30000 kPa	663.1
393.15 K, 40000 kPa	674.3
393.15 K, 50000 kPa	684.3
393.15 K, 60000 kPa	693
393.15 K, 70000 kPa	700.9
393.15 K, 80000 kPa	708.2
393.15 K, 90000 kPa	714.9
393.15 K, 100000 kPa	721.2
393.15 K, 110000 kPa	727.2
393.15 K, 120000 kPa	732.8
393.15 K, 130000 kPa	738.1
393.15 K, 140000 kPa	742.9
403.15 K, 10000 kPa	623.9
403.15 K, 20000 kPa	640.6
403.15 K, 30000 kPa	654.5
403.15 K, 40000 kPa	666.1
403.15 K, 50000 kPa	676.3
403.15 K, 60000 kPa	685.3
403.15 K, 70000 kPa	693.6
403.15 K, 80000 kPa	701.1
403.15 K, 90000 kPa	708.2
403.15 K, 100000 kPa	714.9
403.15 K, 110000 kPa	721.1
403.15 K, 120000 kPa	726.9
403.15 K, 130000 kPa	732.3
403.15 K, 140000 kPa	737.4
